Our source for the IC50 values is patent US20080234262A1 (Wyeth, priority 2007, published 2008).

For one assay, the target named is PI3K (Homo sapiens, UniProt P42336). The experiment in a line: Fluorescence polarization assay for PI3K.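 Further: PI3K kinase reaction on PIP2 with ATP, 30-60 min, product sensed by GST-GRP with red probe in fluorescence polarization (mP), controls without enzyme and at zero time.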 The assay is classed as biochemical. The following applies: PI3Kα; read-out: PI3Kα IC50. A general note: In fluorescence polarisation assays a small probe gives low polarisation when free and higher when bound to something large.
Chain of PI3K (P42336 whole entry): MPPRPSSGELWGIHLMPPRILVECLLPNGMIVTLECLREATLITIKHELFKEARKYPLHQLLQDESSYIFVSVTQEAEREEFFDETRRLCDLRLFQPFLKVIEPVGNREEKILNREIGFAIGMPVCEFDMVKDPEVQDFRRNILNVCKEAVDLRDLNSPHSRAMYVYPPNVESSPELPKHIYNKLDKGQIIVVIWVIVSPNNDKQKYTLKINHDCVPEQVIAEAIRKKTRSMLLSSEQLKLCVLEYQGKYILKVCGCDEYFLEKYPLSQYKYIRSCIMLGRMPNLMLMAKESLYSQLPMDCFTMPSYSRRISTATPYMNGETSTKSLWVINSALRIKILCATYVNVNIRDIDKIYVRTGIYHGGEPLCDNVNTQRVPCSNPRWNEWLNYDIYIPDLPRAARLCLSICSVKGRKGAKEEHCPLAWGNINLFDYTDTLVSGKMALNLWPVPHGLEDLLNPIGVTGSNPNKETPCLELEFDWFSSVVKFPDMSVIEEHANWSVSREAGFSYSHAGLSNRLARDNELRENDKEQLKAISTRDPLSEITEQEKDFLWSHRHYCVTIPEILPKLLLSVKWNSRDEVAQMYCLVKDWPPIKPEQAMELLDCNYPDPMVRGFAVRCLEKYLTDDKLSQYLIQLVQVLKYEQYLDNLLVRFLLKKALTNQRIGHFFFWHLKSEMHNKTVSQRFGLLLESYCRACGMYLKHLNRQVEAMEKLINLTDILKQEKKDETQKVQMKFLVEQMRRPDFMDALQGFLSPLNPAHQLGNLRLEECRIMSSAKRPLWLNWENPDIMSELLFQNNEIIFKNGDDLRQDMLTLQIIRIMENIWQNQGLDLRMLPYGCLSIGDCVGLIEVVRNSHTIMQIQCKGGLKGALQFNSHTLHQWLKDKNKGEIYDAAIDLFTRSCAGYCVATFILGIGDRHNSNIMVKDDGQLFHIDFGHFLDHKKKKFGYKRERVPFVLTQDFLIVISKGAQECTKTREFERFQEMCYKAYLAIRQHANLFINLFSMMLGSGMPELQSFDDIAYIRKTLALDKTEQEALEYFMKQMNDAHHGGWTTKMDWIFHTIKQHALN
Chain of PI3K (P27986 whole entry partner): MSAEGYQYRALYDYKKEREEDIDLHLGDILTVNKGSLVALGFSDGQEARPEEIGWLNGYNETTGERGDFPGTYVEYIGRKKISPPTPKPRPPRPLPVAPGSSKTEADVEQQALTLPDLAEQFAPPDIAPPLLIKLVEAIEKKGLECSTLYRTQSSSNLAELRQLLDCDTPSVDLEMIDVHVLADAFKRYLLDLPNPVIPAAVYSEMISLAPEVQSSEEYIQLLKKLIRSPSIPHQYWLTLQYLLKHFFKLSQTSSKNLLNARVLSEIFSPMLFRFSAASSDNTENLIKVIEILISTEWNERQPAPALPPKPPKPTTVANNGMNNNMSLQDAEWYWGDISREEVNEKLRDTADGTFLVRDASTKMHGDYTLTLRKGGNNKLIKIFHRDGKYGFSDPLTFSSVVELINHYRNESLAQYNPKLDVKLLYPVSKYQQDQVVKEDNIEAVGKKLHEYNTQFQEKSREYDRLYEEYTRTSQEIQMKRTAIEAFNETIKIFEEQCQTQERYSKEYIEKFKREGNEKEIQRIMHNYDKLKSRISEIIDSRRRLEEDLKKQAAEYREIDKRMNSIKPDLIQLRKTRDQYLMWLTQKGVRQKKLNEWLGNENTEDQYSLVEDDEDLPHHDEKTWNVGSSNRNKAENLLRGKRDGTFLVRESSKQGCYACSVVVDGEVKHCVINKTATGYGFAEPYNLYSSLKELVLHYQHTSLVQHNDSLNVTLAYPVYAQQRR
The subject of a further assay is breast line MDA468. The experiment in a line: In vitro cell culture growth assay (MTS), MDA468. It is filed as cell-based, human. The following applies: MDA468 cells, three days after drug treatment. A digest of the protocol:
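Steps: plate cells; add inhibitors the next day; incubate 3 days; add MTS dye, which viable cells convert metabolically; measure absorbance at 490 nm; calculate percent of control growth relative to vehicle-treated cells in the same plate.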

A further assay deals with prostate line LNCap. Briefly: In vitro cell culture growth assay (MTS), LNCap.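 Further: viable cell density read by absorbance at 490 nm, growth expressed as percent of vehicle-treated cells on the same plate.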 To be noted: LNCap cells, three days after drug treatment. The assay is classed as cell-based, human.

Some results are limits rather than exact numbers.

For `CC(C)(C)OC(=O)N1CCC(n2ncc3c(N4CCOCC4)nc(-c4ccc(NC(=O)NCCO)cc4)nc32)CC1` [Compound 766, tert-butyl 4-[6-(4-{[(2-hydroxyethyl)carbamoyl]amino}phenyl)-4-morpholin-4-yl-1H-pyrazolo[3,4-d]pyrimidin-1-yl]piperidine-1-carboxylate], the IC50 on PI3K came out at 364 nM; with breast line MDA468 (Homo sapiens, 72 h), 410 nM; in the assay on prostate line LNCap (Homo sapiens, LNCaP, 72 h) it was 180 nM.
`COC(=O)N1CCC(n2ncc3c(N4CCOCC4)nc(-c4ccc(NC(=O)Nc5ccc(CCN6CCCCC6)cc5)cc4)nc32)CC1` [Compound 915, methyl 4-{4-morpholin-4-yl-6-[4-({[4-(2-piperidin-1-ylethyl)phenyl]carbamoyl}amino)phenyl]-1H-pyrazolo[3,4-d]pyrimidin-1-yl}piperidine-1-carboxylate]: the IC50 on PI3K was 26 nM; in the assay with breast line MDA468 (Homo sapiens, 72 h) it was 25 nM; in the assay on prostate line LNCap (Homo sapiens, LNCaP, 72 h) it was 0.77 nM.
Consider `CC(C)(C)OC(=O)N1CCC(n2ncc3c(N4CCOCC4)nc(-c4ccc(NC(=O)Nc5cnccn5)cc4)nc32)CC1` [Compound 885, tert-butyl 4-(4-morpholin-4-yl-6-{4-[(pyrazin-2-ylcarbamoyl)amino]phenyl}-1H-pyrazolo[3,4-d]pyrimidin-1-yl)piperidine-1-carboxylate], for which the IC50 at PI3K came out at 716 nM; in the assay on breast line MDA468 (Homo sapiens, 72 h), 24000 nM; in the assay on prostate line LNCap (Homo sapiens, LNCaP, 72 h) it was 7300 nM.
The corresponding values for `c1ccc(CN2CCC(n3ncc4c(N5CCOCC5)nc(-c5cccc6[nH]ccc56)nc43)CC2)cc1` [Example 59] are 239 nM, 2600 nM and 500 nM.
The like results for `O=C(Nc1ccncc1)Nc1ccc(-c2nc(N3CCOCC3)c3cnn(C4CCN(C(=O)c5ccccc5)CC4)c3n2)cc1` [Example 384, 1-{4-[1-(1-benzoylpiperidin-4-yl)-4-morpholin-4-yl-1H-pyrazolo[3,4-d]pyrimidin-6-yl]phenyl}-3-pyridin-4-ylurea] were, in that order, 19 nM, 100 nM and 42 nM.
The corresponding values for `CN1CCC(C(=O)Nc2ccc(-c3nc(N4CCOCC4)c4cn[nH]c4n3)cc2)CC1` [Compound 530, 1-methyl-N-[4-(4-morpholin-4-yl-1H-pyrazolo[3,4-d]pyrimidin-6-yl)phenyl]piperidine-4-carboxamide] are 885 nM, 22000 nM and 5300 nM.
As to `C=CCNC(=O)Nc1ccc(-c2nc(N3CCOCC3)c3cnn(C4CCN(Cc5ccccc5)CC4)c3n2)cc1` [Compound 509, 1-allyl-3-{4-[1-(1-benzylpiperidin-4-yl)-4-morpholin-4-yl-1H-pyrazolo[3,4-d]pyrimidin-6-yl]phenyl}urea], the IC50 at PI3K was found to be 268 nM; in the assay with breast line MDA468 (Homo sapiens, 72 h), 1800 nM; in the assay with prostate line LNCap (Homo sapiens, LNCaP, 72 h), 250 nM.
On to `CNC(=O)Nc1ccc(-c2nc(N3CCOCC3)c3cnn(C4CCSCC4)c3n2)cc1` [Compound 867, 1-methyl-3-{4-[4-morpholin-4-yl-1-(tetrahydro-2H-thiopyran-4-yl)-1H-pyrazolo[3,4-d]pyrimidin-6-yl]phenyl}urea], for which the IC50 is 47 nM at PI3K; less than 68.5 nM in the assay with breast line MDA468 (Homo sapiens, 72 h); less than 18.5 nM in the assay with prostate line LNCap (Homo sapiens, LNCaP, 72 h).
With `CNC(=O)Nc1ccc(-c2nc(N3CCOCC3)c3cnn(C4CCN(C(=O)c5cnccn5)CC4)c3n2)cc1` [Example 422, 1-methyl-3-(4-{4-morpholin-4-yl-1-[1-(pyrazin-2-ylcarbonyl)piperidin-4-yl]-1H-pyrazolo[3,4-d]pyrimidin-6-yl}phenyl)urea], the IC50 on PI3K turned out to be 198 nM; in the assay on breast line MDA468 (Homo sapiens, 72 h) it was 400 nM; with prostate line LNCap (Homo sapiens, LNCaP, 72 h), 320 nM.
Regarding `O=C(Nc1ccncc1)Nc1ccc(-c2nc(N3CCOCC3)c3cnn(C4CCN(C(=O)c5ccccc5)CC4)c3n2)cc1` [Compound 629, 1-{4-[1-(1-benzoylpiperidin-4-yl)-4-morpholin-4-yl-1H-pyrazolo[3,4-d]pyrimidin-6-yl]phenyl}-3-pyridin-4-ylurea], the figures for the IC50 on PI3K, in the assay with breast line MDA468 and in the assay on prostate line LNCap were 19 nM, 70 nM and 42 nM, respectively.
The corresponding values for `CNC(=O)Nc1ccc(-c2nc(N3CCOCC3)c3cnn(C4CCN(Cc5ccccc5O)CC4)c3n2)cc1` [Compound 644, 1-(4-{1-[1-(2-hydroxybenzyl)piperidin-4-yl]-4-morpholin-4-yl-1H-pyrazolo[3,4-d]pyrimidin-6-yl}phenyl)-3-methylurea] are 36 nM, 320 nM and 60 nM.
Regarding `COC(=O)N1CCC(n2ncc3c(N4CCOC(C)C4)nc(-c4ccc(NC(=O)NC5CC5)cc4)nc32)CC1` (stereo not drawn) [Compound 843, methyl 4-[6-{4-[(cyclopropylcarbamoyl)amino]phenyl}-4-(2-methylmorpholin-4-yl)-1H-pyrazolo[3,4-d]pyrimidin-1-yl]piperidine-1-carboxylate], the concentration for half-maximal inhibition (IC50) on PI3K was found to be 1380 nM; in the assay with breast line MDA468 (Homo sapiens, 72 h), 900 nM; in the assay with prostate line LNCap (Homo sapiens, LNCaP, 72 h), 80 nM.
The like results for `CCNC(=O)Nc1ccc(-c2nc(N3CCOC[C@@H]3C)c3cnn(C4CCN(C(=O)OCC)CC4)c3n2)cc1` [Compound 894, ethyl 4-(6-{4-[(ethylcarbamoyl)amino]phenyl}-4-[(3S)-3-methylmorpholin-4-yl]-1H-pyrazolo[3,4-d]pyrimidin-1-yl)piperidine-1-carboxylate] were, in that order, 553 nM, 960 nM and 100 nM.
The corresponding values for `CNC(=O)Nc1ccc(-c2nc(N3CCOCC3)c3cnn(C4CCN(Cc5ccc(OC)nc5)CC4)c3n2)cc1` [Example 330, 1-[4-(1-{1-[(6-methoxypyridin-3-yl)methyl]piperidin-4-yl}-4-morpholin-4-yl-1H-pyrazolo[3,4-d]pyrimidin-6-yl)phenyl]-3-methylurea] are 33 nM, 700 nM and 27 nM.
The corresponding values for `CCOC(=O)N1CCC(n2ncc3c(N4CCOCC4)nc(-c4ccc(NC(=O)Nc5ccccc5)cc4)nc32)CC1` [Compound 814, ethyl 4-(6-{4-[(anilinocarbonyl)amino]phenyl}-4-morpholin-4-yl-1H-pyrazolo[3,4-d]pyrimidin-1-yl)piperidine-1-carboxylate] are 34 nM, less than 27 nM and less than 27 nM.
With `CCNC(=O)Nc1ccc(-c2nc(N3CCOC[C@H]3C)c3cnn(C4CCN(C(=O)OCC)CC4)c3n2)cc1` [Compound 889, ethyl 4-(6-{4-[(ethylcarbamoyl)amino]phenyl}-4-[(3R)-3-methylmorpholin-4-yl]-1H-pyrazolo[3,4-d]pyrimidin-1-yl)piperidine-1-carboxylate], the IC50 turned out to be 4360 nM on PI3K; 600 nM in the assay on breast line MDA468 (Homo sapiens, 72 h); 19 nM with prostate line LNCap (Homo sapiens, LNCaP, 72 h).
The corresponding values for `CC(C)(C)OC(=O)N1CCC(n2ncc3c(N4CCOCC4)nc(-c4ccc(NC(=O)Nc5nccs5)cc4)nc32)CC1` [Compound 884, tert-butyl 4-(4-morpholin-4-yl-6-{4-[(1,3-thiazol-2-ylcarbamoyl)amino]phenyl}-1H-pyrazolo[3,4-d]pyrimidin-1-yl)piperidine-1-carboxylate] are 264 nM, 1600 nM and 260 nM.

The term IC50 denotes the concentration at which inhibition is half-maximal.
